Data on 4 compounds can be found in patent US10611778B2, “Fused bicyclic inhibitors of menin-MLL interaction” (Janssen Pharmaceutica NV, priority 2016, dated 2020).

Where two headings read alike, the source gives them in different places.

The target of assay [1] is T1, Menin/MLL (menin, FITC-MBM1 peptide) (Homo sapiens, UniProt O00255, T541A).
T1 construct: 6xHis (C)
T1 sequence (O00255 with tags, fused parts or gaps T541A): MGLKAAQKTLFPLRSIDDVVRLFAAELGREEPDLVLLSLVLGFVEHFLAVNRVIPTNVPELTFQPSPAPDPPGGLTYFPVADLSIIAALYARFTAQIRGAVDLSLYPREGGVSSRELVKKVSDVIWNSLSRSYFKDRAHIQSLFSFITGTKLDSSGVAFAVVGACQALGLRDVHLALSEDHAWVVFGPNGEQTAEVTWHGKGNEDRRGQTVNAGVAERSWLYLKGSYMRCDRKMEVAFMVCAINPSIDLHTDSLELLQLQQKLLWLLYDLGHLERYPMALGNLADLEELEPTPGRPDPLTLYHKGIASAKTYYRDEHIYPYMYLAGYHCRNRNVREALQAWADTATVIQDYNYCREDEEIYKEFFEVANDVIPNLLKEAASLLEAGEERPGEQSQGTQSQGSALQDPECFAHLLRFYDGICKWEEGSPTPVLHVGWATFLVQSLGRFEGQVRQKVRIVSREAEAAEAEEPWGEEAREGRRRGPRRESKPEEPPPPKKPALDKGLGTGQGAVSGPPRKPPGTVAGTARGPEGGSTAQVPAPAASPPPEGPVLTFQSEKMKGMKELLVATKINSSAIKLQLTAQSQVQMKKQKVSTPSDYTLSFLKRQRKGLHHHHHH
In words: Menin/MLL fluorescence polarization (FP) assay. The class given is binding. Summed up:
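Compound pre-incubated 10 min with 100 nM menin (40 mM Tris-HCl pH 7.5, 50 mM NaCl, 1 mM DTT, 0.001% Tween 20), then 5 nM FITC-MBM1 peptide added for 15 min at ambient temperature; 0.625% DMSO final. FP read at ex 485/em 520 nm. IC50 from 11-point three-fold dilutions from 31 μM, % inhibition vs saturating-competitor controls.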
A general note: Polarisation of emitted light reports the rotation of a fluorescent probe.

The target of assay [2] is T2, Menin/MLL (terbium chelate-labeled menin, FITC-MBM1 peptide) (Homo sapiens, UniProt O00255, T541A).
T2 construct: Menin (a.a. 1-610-6×his tag) was labeled with terbium cryptate as follows
T2 sequence (O00255 with tags, fused parts or gaps T541A): T1 sequence (O00255 with tags, fused parts or gaps T541A)
In words: Menin/MLL homogenous time-resolved fluorescence (HTRF) assay. It counts as binding. Summed up:
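Compound preincubated 5 min with terbium-cryptate-labeled menin (aa 1-610, His-tagged; 100 pM final), then 75 nM FITC-MBM1 peptide added, 15 min at ambient temperature; 0.5% DMSO, Tris pH 7.5 buffer. HTRF ratio 520/490 nm; % inhibition vs saturating competitor, IC50 from 11-point three-fold titration from 31 μM.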
(Time-resolved FRET reads energy transfer from a long-lived donor to a nearby acceptor.)

[3] abbreviates: averaged values over all measurements, read-out: Menin FP assay (IC50).
Setting [4] is: averaged values over all measurements, read-out: Menin HTRF assay (IC50).

On to `Fc1ccccc1CN1CC[C@H]2CN(c3ncnc4sc(CC(F)(F)F)cc34)CC[C@H]21` (single isomer, unassigned) [Compound 6], for which the values for the half-maximal inhibitory concentration (IC50) in assay [1] (setting [3]) and in assay [2] (setting [4]) were 0.21 µM and 476 nM, respectively.
On to `FC(F)(F)Cc1cc2c(N3CC[C@H]4[C@H](CCN4Cc4ccc[nH]4)C3)ncnc2s1` (single isomer, unassigned) [Compound 8], for which the IC50 is 0.101 µM in assay [1] (individual measurements (not averaged), read-out: (1) Menin FP assay (IC50 (μM))) and 48 nM in assay [2] (individual measurements (not averaged), read-out: (3) Menin HTRF assay (IC50 (nM))).
`FC(F)(F)Cc1cc2c(N3CCC4C(CCN4Cc4ccccc4)C3)ncnc2s1` (centres unmarked) [Compound 1]: the half-inhibitory concentration (IC50) in assay [1] (setting [3]) was 0.033 µM; in assay [2] (setting [4]) it was 113 nM.
On the same counts, the results for `FC(F)(F)Cc1cc2c(N3CCC4C3CCN4Cc3ccccc3)ncnc2s1` (centres unmarked) [Compound 2] are 0.34 µM and 797 nM.

Usually IC50 stands for the midpoint of a concentration-inhibition curve.
